We go through one compound from paper PMC12605013, “SAG1.3-derived Frizzled-targeting small-molecule compounds” (The Journal of Biological Chemistry, 2025).

The target in one assay is T1, Nluc-FZD7 (Homo sapiens, UniProt O75084).
T1 construct: expressed in transfected cells; host or cells: ΔFZD1–10 HEK293T cells
The assay can be described thus: BRET-based BODIPY-cyclopamine competition binding at Nluc-FZD7. The note with it: BODIPY-cyclopamine 200 nM; ΔFZD1-10 HEK293T cells; read-out: pIC50 (11) mean ± SEM, Nluc-FZD7 (converted). The method, then:
After 24 h, cells were washed once with Hanks' balanced salt solution (HBSS), followed by the addition of 80 μl of HBSS. Next, 10 μl of the competitive ligand, that is, the tested SAG1.3 derivative (either in different concentrations for the concentration–response curves or at a final concentration of 10 μM for the first screens) and 10 μl of the fluorescent tracer BODIPY–cyclopamine (final concentration: 300 nM for the first screens, 200 nM for the concentration–response experiments) were added. All serial dilutions were prepared in HBSS. The cells were incubated for 90 min at 37 °C without additional CO2, after which 10 μl of luciferase substrate diluted in HBSS (furimazine; Promega, N1572, final dilution: 1:1000 for first screening) and coelenterazine h (Biosynth; final concentration: 5 μM for concentration–response experiments) were added to the cells. Following a 10 min incubation period in the dark, the measurement was started on a BMG Labtech ClarioStar or TECAN Spark multimode microplate reader, prewarmed to 37 °C. Nluc bioluminescence was detected between 460 and 490 nm (ClarioStar) or 460 and 500 nm (TECAN Spark). The emission of the fluorescent tracer was detected between 520 and 550 nm (ClarioStar) or between 520 and 560 nm (TECAN Spark). […]
In general terms: In BRET a luciferase serves as donor, and the signal depends on an acceptor being close.

Assay [1] has as its system LGR5 gene expression in primary human hepatocyte (PHH) spheroids. The experiment in a line: WNT-3A-induced LGR5 gene expression in primary human hepatocyte spheroids. The note with it: 10 μM compound, 48 h, coaddition with WNT-3A. The assay is classed as cell-based. The method, then:
Cryopreserved adult PHHs were purchased from BioIVT and cultured as 3D spheroids as previously described ([35]). Briefly, PHHs were seeded in 96-well ultra-low attachment plates (Corning) at a density of 1500 cells/well in William’s E medium (Gibco) supplemented with insulin, transferrin, and selenium (Life Technologies), 100 nM dexamethasone (Sigma), and 10% fetal bovine serum (Cytiva). PHHs were treated from the start of the culture with vehicle control (dimethyl sulfoxide [DMSO]), recombinant WNT-3A, and 10 μM compound 11 for 48 h, as indicated. […]
RNA from 24 hepatocyte spheroids per condition was isolated using Qiazol lysis reagent (QIAGEN). For expression profiling of target genes by quantitative PCR, complementary DNA synthesis was carried out using SuperScript III reverse transcriptase (Invitrogen), and expression was evaluated using Taqman probes (Table S6) according to the supplier’s instructions in a 7500 Fast Real-Time PCR system (Applied Biosystems). Gene expression was quantified using the ΔΔCt method (normalized to the average of the vehicle control from all three experiments).
For the WNT target gene analysis in PHH-derived spheroids, ΔΔCt values were calculated by normalization to the averaged vehicle control from three independent experiments.

With `CC(=O)Nc1cccc(C(=O)NC2CCC(N(Cc3cccc(-c4ccncc4)c3)C(=O)c3sc4ccccc4c3Cl)CC2)c1` (centres unmarked) [compound 11, N-((1r,4r)-4-(3-Acetamidobenzamido)cyclohexyl)-3-chloro-N-(3-(pyridin-4-yl)benzyl)benzo[b]thiophene-2-carboxamide], the IC50 on Nluc-FZD7 was 891 nM. For the same compound, in assay [1], the “Effect on WNT-3A-induced LGR5 mRNA expression” value is reported as “returning mRNA expression almost back to vehicle levels”.
